# Laboratory results from article PMC9169098 (Proceedings of the National Academy of Sciences of the …, 2022).
# Residue numbers refer to the chain shown, from its start. Names and notes keep the numbering of the source.
# T1: BceAB (ATPase sites of BceA) (Bacillus subtilis, UniProt O34697)
# T1 sequence (O34697 1-253 limits assumed): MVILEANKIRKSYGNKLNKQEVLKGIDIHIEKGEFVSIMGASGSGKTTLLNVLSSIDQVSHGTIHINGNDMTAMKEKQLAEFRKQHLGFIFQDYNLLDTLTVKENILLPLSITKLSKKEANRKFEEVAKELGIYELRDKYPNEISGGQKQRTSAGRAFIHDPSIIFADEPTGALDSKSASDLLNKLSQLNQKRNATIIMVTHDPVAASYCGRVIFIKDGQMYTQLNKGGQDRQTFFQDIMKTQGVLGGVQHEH
# T1 sequence (O34741 1-646 partner): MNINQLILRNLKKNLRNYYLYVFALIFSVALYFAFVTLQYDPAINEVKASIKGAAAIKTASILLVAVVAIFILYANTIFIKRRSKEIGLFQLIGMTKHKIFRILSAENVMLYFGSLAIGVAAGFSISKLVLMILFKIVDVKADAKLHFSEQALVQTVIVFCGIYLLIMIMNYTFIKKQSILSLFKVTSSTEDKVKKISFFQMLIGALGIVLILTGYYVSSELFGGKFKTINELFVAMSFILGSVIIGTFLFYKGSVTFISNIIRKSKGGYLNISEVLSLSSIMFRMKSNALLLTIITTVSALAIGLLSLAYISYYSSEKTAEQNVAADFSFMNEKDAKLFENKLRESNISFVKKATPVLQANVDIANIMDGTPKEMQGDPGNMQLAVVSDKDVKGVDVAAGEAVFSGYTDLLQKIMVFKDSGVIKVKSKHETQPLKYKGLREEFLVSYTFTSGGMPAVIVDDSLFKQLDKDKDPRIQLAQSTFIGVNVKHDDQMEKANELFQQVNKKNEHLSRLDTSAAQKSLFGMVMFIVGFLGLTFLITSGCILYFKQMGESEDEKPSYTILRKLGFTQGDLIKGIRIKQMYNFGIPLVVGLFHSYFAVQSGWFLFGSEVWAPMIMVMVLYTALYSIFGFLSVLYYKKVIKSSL
# T2: BceB (B. subtilis, UniProt O34741 1-646)
# T2 sequence (looked up): T1 sequence (O34741 1-646 partner)
# B1: BceA (natural protein, B. subtilis, UniProt O34697 1-253, looked up)
# chain: T1 sequence (O34697 1-253 limits assumed)
# B2: BceA E169Q variant (natural protein, B. subtilis, UniProt O34697 1-253, looked up)
# chain: T1 sequence (O34697 1-253 limits assumed) with E169Q
# Columns and labels:
# [1] = target: T1, BceAB (ATPase sites of BceA); experiment: colorimetric phosphate-release ATPase assay; format: biochemical; conditions: ATP substrate, 4 mM MgCl2, 37 °C, inhibitor
# BceB = target: T2, BceB; experiment: cryo-EM structure
# cryo-EM structure = target: the molecule itself; experiment: cryo-EM structure
molecule,measurement,setting,value
Nc1ncnc2c1ncn2[C@@H]1O[C@H](COP(=O)(O)OP(=O)(O)OP(O)(O)=S)[C@@H](O)[C@H]1O [ATPγS],colorimetric phosphate-release ATPase assay,[1]; substrate analog,potently inhibited by common ATPase inhibitors such as the substrate analog ATP? S
[O]=[V]([OH])([OH])[OH] [sodium ortho-vanadate],colorimetric phosphate-release ATPase assay,[1],potently inhibited by common ATPase inhibitors such as the substrate analog ATP? S or sodium ortho-vanadate
B1,stoichiometry N,BceB,2 BceA per BceB
B2,stoichiometry N,cryo-EM structure,2
